Tests used:
[1] = system: soybean event pDAB4472-1606; test: Field expression level study with 2X spray rate of 2,4-D; type: in vivo, Glycine max; conditions: 2X spray rate (2,240 gm ae/ha of 2,4-D); at any point of the study
Protocol: Field expression level studies at various plant stages were performed on soybean event pDAB4472-1606 at pre V3, post V3, pre R2, and post R2. Expression values were similar for all the sprayed treatments as well as for the plots sprayed and unsprayed with 2,4-D herbicide. […] Average expression across all lineages in pre V3 plant stage was 200 ug/cm^2. After spraying 2,4-D the expression remained stable averaging […] across lineages. By the time the soybeans reached pre R2 the average expression had dropped slightly to an average of 250 ug/cm^2. After spraying 2,4-D the expression post R2 had remained at the previous average of 250 ug/cm^2.

[2] = system: soybean event pDAB4472-1606; type: in vivo, Glycine max; conditions: 2,4-D dimethylamine salt 2240 g ae/ha applied at V3 and R2; adjusted mean
From the text: The agronomic characteristics of soybean event pDAB4472-1606 were compared to an isogenic non-transformed soybean line across diverse geographical locations during the 2009 growing season. Data were collected and analyzed for the following agronomic characteristics: • 1.) Stand count: The number of plants in a representative one meter section of each row was counted. Taking data at the VC-V2 growth stage; • 2.) Emergence: Calculated by dividing Stand count (above) by number of seeds planted in a one meter section; • 3.) Seedling Vigor at V1-V3: Vigor is an overall estimate of the health of the plant. […] Recorded in the number of days from planting date; • 8.) Stand count at R2: The number of plants in a representative one meter section of row were counted. Note taken at the R2 growth stage; • 9.) Overall visual crop injury, chlorosis and necrosis at 1 day after R2 chemical application; • 10.) Overall visual crop injury, chlorosis and necrosis at 7 days after R2 chemical application; • 11.) Overall visual crop injury, chlorosis and necrosis at 14 days after R2 chemical application. • 12.) Disease incidence (if any) at R6 growth stage: Recorded the percentage of plants affected by the disease. 0-100% scale; • 13.) Insect damage (if any) at R6 growth stage: Recorded the percentage of plant tissue in the plot damaged by insects. 0-100% scale; • 14.) Plant height at senescence: Recorded the average height of the plants in each plot. Measured plants from the soil surface to the tip after leaves had fallen. Recorded measurement in centimeters; • 15.) Days to maturity. Recorded when 95% of the pods in a plot had reached their dry down color and were at ˜15% moisture or less. Recorded in days from planting; • 16.) Lodging: Recorded lodging at harvest time. […] (All plants in a plot standing straight=1 and all plants in the plot flat=5); • 17.) Shattering: Recorded shattering at harvest time. Recorded as an estimate of number of pods shattered. […] Recorded seed weight and moisture. […]

O=C(O)COc1ccc(Cl)cc1Cl [2,4-D, 2,4-dichlorophenoxyacetic acid]
Injury on the plants [1]: no significant injury was observed | Overall crop injury 1 day after V3 spray [2]: 0.3% | Overall crop injury 7 days after V3 spray [2]: 2.1% | Overall crop injury 14 days after V3 spray [2]: 3.3%
